# Source: patent US8153615B2, “Synthesis of glycerolipid carbamates and dicarbamates and their use as an antitumor compounds” (priority 2005, dated 2012)
# Where “and” joins values, the source holds several entries; their conditions need not be identical. Equal entries are not always repeated.
# How the values were obtained:
# [1] = tested on: DU145 cells; experiment: Antiproliferative evaluation, CyQuant assay, DU145; type: cell-based, human; settings: exponentially growing cells, 48 h incubation, read-out: IC50, growth inhibition, DU145, prostate
# Procedure: (§1) FIG. 2 is a graphical depiction of the results of an antiproliferative evaluation of compound I against the following cancer cell lines: DU145, PC3, BT549, HeLa, MDA-MB-231, A549, and MCF-7. Cells growing exponentially in 48-well plates were incubated with different concentrations of compound I for 48 h. The increases in cell numbers were determined by the CyQuant assay and are expressed as a percentage of the increase in control wells with the vehicle (0.1% ethanol). The results are the average+SD from six different wells.
# as §1, with “FIG. 3” for “FIG. 2”, “compound II” for “compound I”
# as §1, with “FIG. 4” for “FIG. 2”, “compound III” for “compound I”
# as §1, with “FIG. 5” for “FIG. 2”, “compound IV” for “compound I”
# as §1, with “FIG. 6” for “FIG. 2”, “compound V” for “compound I”
# (§2) We screened the compounds against a panel of human cancer cell lines derived from a number of tissues. […]
# [2] = tested on: PC3 cells; experiment: Antiproliferative evaluation, CyQuant assay, PC3; type: cell-based, human; settings: exponentially growing cells, 48 h incubation, read-out: IC50, growth inhibition, PC3, prostate
# Procedure: as §1
# as §1, with “FIG. 3” for “FIG. 2”, “compound II” for “compound I”
# as §1, with “FIG. 4” for “FIG. 2”, “compound III” for “compound I”
# as §1, with “FIG. 5” for “FIG. 2”, “compound IV” for “compound I”
# as §1, with “FIG. 6” for “FIG. 2”, “compound V” for “compound I”
# as §2
# [3] = tested on: BT549 cells; experiment: Antiproliferative evaluation, CyQuant assay, BT549; type: cell-based, human; settings: exponentially growing cells, 48 h incubation, read-out: IC50, growth inhibition, BT549, breast
# Procedure: as §1
# as §1, with “FIG. 3” for “FIG. 2”, “compound II” for “compound I”, “ethanol). […]” for “ethanol). The results are the average+SD from six different wells.”
# (§3) FIG. 4 is a graphical depiction of the results of an antiproliferative evaluation of compound III against the following cancer cell lines: DU145, PC3, BT549, HeLa, MDA-MB-231, A549, and MCF-7. […] The increases in cell numbers were determined by the CyQuant assay and are expressed as a percentage of the increase in control wells with the vehicle (0.1% ethanol). […]
# as §3, with “FIG. 5” for “FIG. 4”, “compound IV” for “compound III”
# as §3, with “FIG. 6” for “FIG. 4”, “compound V” for “compound III”
# [4] = tested on: MDA-MB-231 cells; experiment: Antiproliferative evaluation, CyQuant assay, MDA-MB-231; type: cell-based, human; settings: exponentially growing cells, 48 h incubation, read-out: IC50, growth inhibition, MDA-MB-231, breast
# Procedure: as §1
# as §1, with “FIG. 3” for “FIG. 2”, “compound II” for “compound I”, “ethanol). […]” for “ethanol). The results are the average+SD from six different wells.”
# as §3
# as §3, with “FIG. 5” for “FIG. 4”, “compound IV” for “compound III”
# as §3, with “FIG. 6” for “FIG. 4”, “compound V” for “compound III”
# [5] = tested on: MCF-7 cells; experiment: Antiproliferative evaluation, CyQuant assay, MCF-7; type: cell-based, human; settings: exponentially growing cells, 48 h incubation, read-out: IC50, growth inhibition, MCF-7, breast
# Procedure: as §1
# as §1, with “FIG. 3” for “FIG. 2”, “compound II” for “compound I”
# as §1, with “FIG. 4” for “FIG. 2”, “compound III” for “compound I”
# as §1, with “FIG. 5” for “FIG. 2”, “compound IV” for “compound I”
# as §1, with “FIG. 6” for “FIG. 2”, “compound V” for “compound I”, “wells. […]” for “wells.”
# [6] = tested on: HeLa cells; experiment: Antiproliferative evaluation, CyQuant assay, HeLa; type: cell-based, human; settings: exponentially growing cells, 48 h incubation, read-out: IC50, growth inhibition, HeLa, cervix
# Procedure: as §1
# as §1, with “FIG. 3” for “FIG. 2”, “compound II” for “compound I”, “ethanol). […]” for “ethanol). The results are the average+SD from six different wells.”
# as §3
# as §3, with “FIG. 5” for “FIG. 4”, “compound IV” for “compound III”
# as §3, with “FIG. 6” for “FIG. 4”, “compound V” for “compound III”
# [7] = tested on: A549 cells; experiment: Antiproliferative evaluation, CyQuant assay, A549; type: cell-based, human; settings: exponentially growing cells, 48 h incubation, read-out: IC50, growth inhibition, A549, lung
# Procedure: as §1
# as §1, with “FIG. 3” for “FIG. 2”, “compound II” for “compound I”
# as §1, with “FIG. 4” for “FIG. 2”, “compound III” for “compound I”
# as §1, with “FIG. 5” for “FIG. 2”, “compound IV” for “compound I”
# as §1, with “FIG. 6” for “FIG. 2”, “compound V” for “compound I”, “wells. […]” for “wells.”
# [8] = tested on: DU145 cells; experiment: Toxicity (loss of viability) to DU145 cells; type: cell-based, human
# Excerpt: (§4) We screened the compounds against a panel of human cancer cell lines derived from a number of tissues. These were breast (MCF-7, BT549, SKBr3, MDA-MB-231), lung (A549), cervix (HeLa), and prostate (DU145, PC3) cancer cell lines. […] In some cases, the IC50 values were much lower than values reported for ET-18-OCH3, indicative of a greater degree of potency of these new compounds. The most striking observation is that the greatest inhibition of cell growth was found when the two prostate cell lines, DU145 and PC3, were treated with these compounds. […] Because hormone-insensitive prostate cancer cells are highly sensitive to the active compounds described herein, (compounds I, II, and III), we postulate that it may be possible to selectively kill prostate cancer cells with low concentrations without harming other cells in the body. The prostate selectivity observed with compound I was also observed with compounds II and III (Table 1 and FIGS. 3 and 4) and distinguishes these compounds from other antitumor compounds.
# [9] = tested on: prostate cancer cells (DU145, PC3) relative to other cancer cell lines; experiment: Prostate cancer cell selectivity across the panel of human cancer cell lines; type: cell-based; settings: prostate lines versus other cancer cell lines, 48 h
# Excerpt: as §4
# [10] = tested on: HepG2 cells; settings: read-out: IC50, antiproliferative effect, HepG2 (liver); proliferating cells, 0-20 μM, 48 h, CyQuant assay
# Procedure: (§5) Specifically, proliferating cells in 48-well plates were incubated with 0-20 μM of the compound for 48 hours. The cell numbers present were determined by the CyQuant™ assay (Invitrogen), and the increase in numbers were expressed relative to the controls receiving only the vehicle (0.1% ethanol).
# (§6) Proliferating cells in 48-well plates were incubated with 0-20 μM of the compound for 48 h. The cell numbers present were determined by the CyQuant™ assay (Invitrogen), and the increase in numbers were expressed relative to the controls receiving only the vehicle (0.1% ethanol).
# [11] = tested on: SK-N-MC cells; settings: read-out: IC50, antiproliferative effect, SK-N-MC (neuronal); proliferating cells, 0-20 μM, 48 h, CyQuant assay
# Procedure: as §5, §6
# [12] = tested on: SK-N-SH cells; settings: read-out: IC50, antiproliferative effect, SK-N-SH (neuronal); proliferating cells, 0-20 μM, 48 h, CyQuant assay
# Procedure: as §5, §6
Compound,IC50 [1],IC50 [2] [µM],IC50 [3] [µM],IC50 [4] [µM],IC50 [5] [µM],IC50 [6] [µM],IC50 [7] [µM],concentration toxic to the cells (loss of viability) [8] [µM],prostate cancer cell selectivity [9],IC50 [10] [µM],IC50 [11] [µM],IC50 [12] [µM]
"CCCCCCCCCCCCCCCCOC[C@@H](CCP(=O)([O-])OCC[N+](C)(C)C)OC(=O)NC [Compound I, 2′-(trimethylammonio)ethyl 4-hexadecyloxy-3(R)—N-methylcarbamoyl-1-butanephosphonate]",1 µM and 1.2 µM,1.2,4.4,3.7,4,3.3,10.7,2.5,–,–,–,–
"CCCCCCCCCCCCCCCCOC[C@@H](COP(=O)([O-])OCC[N+](C)(C)C)NC(=O)OC [Compound III, 2′-(trimethylammonio)ethyl 2(S)—(N-methoxycarbonylamido)-3-hexadecyloxypropanephosphate]",2.4 µM,1.9,13.4,10.5,9.1,19.3,> 20,–,greatest prostate cancer cell selectivity,–,–,–
"1-O-(7-N, N-dimethylamino-3-pentadecanoyl-1-napthyl)-2-O-methyl-sn-glycero-3-phosphocholine",3.5 µM,1.9,–,–,> 20,–,> 20,–,highly selective for prostate cancer cells,> 20,> 20,< 20
"CCCCCCCCCCCCCCCCOC[C@H](CCP(=O)([O-])OCC[N+](C)(C)C)OC(=O)NC [Compound II, 2′-(trimethylammonio)ethyl 4-hexadecyloxy-3(S)—N-methylcarbamoyl-1-butane-phosphonate]",2.1 µM,2.5,6.8,6.1,10.1,7.9,> 20,–,–,–,–,–
